Source: US20180265515A1 (Genentech, Inc., priority 2015, published 2018)

Key:
[1] = molecular target: T1, isolated recombinant JAK1 kinase domain (Homo sapiens, UniProt P23458); assay: JAK1 enzyme assay (Caliper LabChip, Ki); format: biochemical; details: recombinant JAK1 kinase domain, 25 μM ATP
T1 construct: The activity of the isolated recombinant JAK1 and JAK2 kinase domain was measured
In short: (§1)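 Caliper LabChip read-out: fraction of FAM-labeled JAK3-derived peptide converted to phosphopeptide by isolated JAK1/JAK2 kinase domain. Reaction 30 min, 22° C; stopped with EDTA, 50 mM final. Ki via Morrison tight-binding model, Ki=Ki,app/(1+[ATP]/Km,app).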

[2] = system: JAK1-dependent STAT6 phosphorylation downstream of IL-13 stimulation in BEAS-2B human bronchial epithelial cells; assay: JAK1 pathway assay in BEAS-2B cells (IL-13 stimulated STAT6 phosphorylation, MSD); format: cell-based; details: read-out: P-STAT6 BEAS2B + IL13 IC50
In short: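 BEAS-2B human bronchial epithelial cells, plated the day before in complete growth medium, were preincubated with compound for 1 hr at 37° C (0.2% DMSO final), then stimulated with IL-13 at its EC90 for 15 min. STAT6 phosphorylation in lysates was read by MSD; EC50 was taken as 50% inhibition versus DMSO control.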

[3] = molecular target: T2, isolated recombinant JAK2 kinase domain (Homo sapiens, UniProt O60674); assay: JAK2 enzyme assay (Caliper LabChip, Ki); format: biochemical; details: 25 μM ATP
T2 construct: The activity of the isolated recombinant JAK1 and JAK2 kinase domain was measured
In short: as §1

T1 sequence (P23458 875-1153 limits assumed): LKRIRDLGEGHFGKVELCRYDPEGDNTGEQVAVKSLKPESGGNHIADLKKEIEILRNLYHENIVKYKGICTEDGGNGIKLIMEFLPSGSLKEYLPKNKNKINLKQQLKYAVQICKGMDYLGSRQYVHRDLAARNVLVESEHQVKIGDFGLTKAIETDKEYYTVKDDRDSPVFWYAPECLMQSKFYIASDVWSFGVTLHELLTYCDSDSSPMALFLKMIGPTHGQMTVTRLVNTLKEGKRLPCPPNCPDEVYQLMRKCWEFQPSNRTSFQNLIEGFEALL
T2 sequence (O60674 849-1124 limits assumed): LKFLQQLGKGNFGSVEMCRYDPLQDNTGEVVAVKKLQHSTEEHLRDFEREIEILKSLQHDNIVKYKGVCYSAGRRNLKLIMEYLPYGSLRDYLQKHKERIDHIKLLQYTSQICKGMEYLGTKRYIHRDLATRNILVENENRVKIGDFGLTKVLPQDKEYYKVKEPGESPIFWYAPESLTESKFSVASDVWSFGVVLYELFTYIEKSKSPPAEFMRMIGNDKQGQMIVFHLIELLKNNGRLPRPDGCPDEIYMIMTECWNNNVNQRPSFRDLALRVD

## CC(=O)N1CCN(CC2CCN(C(=O)Cn3cc(NC(=O)c4cnn5cccnc45)c(-c4cc(SC(C)C)ccc4OC(F)F)n3)CC2)CC1 [Example 157, N-[1-[2-[4-[(4-acetylpiperazin-1-yl)methyl]-1-piperidyl]-2-oxo-ethyl]-3-[2-(difluoromethoxy)-5-isopropylsulfanyl-phenyl]pyrazol-4-yl]pyrazolo[1,5-a]pyrimidine-3-carboxamide]
[1]
  Ki: 0.27 nM
[2]
  IC50: 47 nM
[3]
  Ki: 0.77 nM

## Cn1cc(NC(=O)c2cnn3cccnc23)c(-c2cc(SC(CF)CF)ccc2OC(F)F)n1 [Example 159, N-[3-[2-(difluoromethoxy)-5-[(1,3-difluoropropan-2-yl)sulfanyl]phenyl]-1-methyl-1H-pyrazol-4-yl]pyrazolo[1,5-a]pyrimidine-3-carboxamide]
[1]
  Ki: 0.16 nM
[2]
  IC50: 3.9 nM
[3]
  Ki: 0.097 nM

## CSc1ccc(OC(F)F)c(-c2nn(CC(=O)N3CCC(N4CCN(C)CC4)CC3)cc2NC(=O)c2cnn3cccnc23)c1 [Example 63, N-[3-[2-(difluoromethoxy)-5-(methylsulfanyl)phenyl]-1-[2-[4-(4-methylpiperazin-1-yl)piperidin-1-yl]-2-oxoethyl]-1H-pyrazol-4-yl]pyrazolo[1,5-a]pyrimidine-3-carboxamide]
[1]
  Ki: 0.35 nM
[2]
  IC50: 22 nM
[3]
  Ki: 0.7 nM

## COC(=O)N1CCN(CC2CCN(C(=O)Cn3cc(NC(=O)c4cnn5cccnc45)c(-c4cc(SC)ccc4OC(F)F)n3)CC2)CC1 [Example 83, methyl 4-[[1-[2-[3-[2-(difluoromethoxy)-5-methylsulfanyl-phenyl]-4-(pyrazolo[1,5-a]pyrimidine-3-carbonylamino)pyrazol-1-yl]acetyl]-4-piperidyl]methyl]piperazine-1-carboxylate]
[1]
  Ki: 0.3 nM
[2]
  IC50: 10 nM
[3]
  Ki: 0.44 nM

## CSc1ccc(OC(F)F)c(-c2nn(CC(=O)N3CCN(CCN4CCOCC4)CC3)cc2NC(=O)c2cnn3cccnc23)c1 [Example 16, N-[3-[2-(difluoromethoxy)-5-methylsulfanyl-phenyl]-1-[2-[4-(2-morpholinoethyl)piperazin-1-yl]-2-oxo-ethyl]pyrazol-4-yl]pyrazolo[1,5-a]pyrimidine-3-carboxamide]
[1]
  Ki: 0.39 nM
[2]
  IC50: 18 nM
[3]
  Ki: 0.5 nM

## O=C(Nc1cn(CC(=O)N2CCC(CN3CCOCC3)CC2)nc1-c1cc(SC2CC2)ccc1OC(F)F)c1cnn2cccnc12 [Example 162, N-[3-[5-cyclopropylsulfanyl-2-(difluoromethoxy)phenyl]-1-[2-[4-(morpholinomethyl)-1-piperidyl]-2-oxo-ethyl]pyrazol-4-yl]pyrazolo[1,5-a]pyrimidine-3-carboxamide]
[1]
  Ki: 0.42 nM
[2]
  IC50: 15 nM
[3]
  Ki: 0.98 nM

## CSc1ccc(OC(F)F)c(-c2nn(CC(=O)N3CCC(N4CCN(C)C(=O)C4)CC3)cc2NC(=O)c2cnn3cccnc23)c1 [Example 23, N-[3-[2-(difluoromethoxy)-5-methylsulfanyl-phenyl]-1-[2-[4-(4-methyl-3-oxo-piperazin-1-yl)-1-piperidyl]-2-oxo-ethyl]pyrazol-4-yl]pyrazolo[1,5-a]pyrimidine-3-carboxamide]
[1]
  Ki: 0.24 nM
[2]
  IC50: 61 nM
[3]
  Ki: 0.31 nM

## CSc1ccc(OC(F)F)c(-c2nn(CC(=O)N3CCC(N4CCCC(C#N)C4)CC3)cc2NC(=O)c2cnn3cccnc23)c1 (stereo not drawn) [Example 31, N-[1-[2-[4-(3-cyano-1-piperidyl)-1-piperidyl]-2-oxo-ethyl]-3-[2-(difluoromethoxy)-5-methylsulfanyl-phenyl]pyrazol-4-yl]pyrazolo[1,5-a]pyrimidine-3-carboxamide]
[1]
  Ki: 0.19 nM
[2]
  IC50: 8.3 nM
[3]
  Ki: 0.25 nM

## CSc1ccc(OC(F)F)c(-c2nn(CC(=O)N3CC4CCCNC4C3)cc2NC(=O)c2cnn3cccnc23)c1 (stereo not drawn) [Example 35, N-[1-[2-(1,2,3,4,4a,5,7,7a-octahydropyrrolo[3,4-b]pyridin-6-yl)-2-oxo-ethyl]-3-[2-(difluoromethoxy)-5-methylsulfanyl-phenyl]pyrazol-4-yl]pyrazolo[1,5-a]pyrimidine-3-carboxamide]
[1]
  Ki: 0.39 nM
[2]
  IC50: 19 nM
[3]
  Ki: 0.4 nM

## CSc1ccc(OC(F)F)c(-c2nn(CC(=O)N3CCC(N(C)CC4OCCO4)CC3)cc2NC(=O)c2cnn3cccnc23)c1 [Example 50]
[1]
  Ki: 0.5 nM
[2]
  IC50: 18 nM
[3]
  Ki: 0.96 nM

## CSc1ccc(OC(F)F)c(-c2nn([C@H]3CCCN(C)C3)cc2NC(=O)c2cnn3cccnc23)c1 [Example 12, (S)—N-(3-(2-(difluoromethoxy)-5-(methylthio)phenyl)-1-(1-methylpiperidin-3-yl)-1H-pyrazol-4-yl)pyrazolo[1,5-a]pyrimidine-3-carboxamide]
[1]
  Ki: 0.41 nM
[2]
  IC50: 6 nM
[3]
  Ki: 0.32 nM

## CSc1ccc(OC(F)F)c(-c2nn(CC(=O)N3CCC(N4CCC[C@H](C#N)C4)CC3)cc2NC(=O)c2cnn3cccnc23)c1 [Example 55, N-[1-(2-[4-[(3 S)-3-cyanopiperidin-1-yl]piperidin-1-yl]-2-oxoethyl)-3-[2-(difluoromethoxy)-5-(methylsulfanyl)phenyl]-1H-pyrazol-4-yl]pyrazolo[1,5-a]pyrimidine-3-carboxamide]
[1]
  Ki: 0.27 nM
[2]
  IC50: 11 nM
[3]
  Ki: 0.52 nM

## O=C(Nc1cn(CC(=O)N2CCN(C3CCOCC3)CC2)nc1-c1cc(SC2CC2)ccc1OC(F)F)c1cnn2cccnc12 [Example 168, N-[3-[5-cyclopropylsulfanyl-2-(difluoromethoxy)phenyl]-1-[2-oxo-2-(4-tetrahydropyran-4-ylpiperazin-1-yl)ethyl]pyrazol-4-yl]pyrazolo[1,5-a]pyrimidine-3-carboxamide]
[1]
  Ki: 0.29 nM
[2]
  IC50: 14 nM
[3]
  Ki: 0.46 nM

## C[S+]([O-])c1ccc(OC(F)F)c(-c2n[nH]cc2NC(=O)c2cnn3cccnc23)c1 (stereo not drawn) [Example 3, N-[3-[2-(difluoromethoxy)-5-methylsulfinyl-phenyl]-1H-pyrazol-4-yl]pyrazolo[1,5-a]pyrimidine-3-carboxamide]
[1]
  Ki: 1.7 nM
[2]
  IC50: 430 nM
[3]
  Ki: 0.57 nM

## CNC(=O)[C@@H]1CCCN1CC1CCN(C(=O)Cn2cc(NC(=O)c3cnn4cccnc34)c(-c3cc(SC)ccc3OC(F)F)n2)CC1 [Example 44, N-[3-[2-(difluoromethoxy)-5-methylsulfanyl-phenyl]-1-[2-[4-[[(2S)-2-(methylcarbamoyl)pyrrolidin-1-yl]methyl]-1-piperidyl]-2-oxo-ethyl]pyrazol-4-yl]pyrazolo[1,5-a]pyrimidine-3-carboxamide]
[1]
  Ki: 0.38 nM
[2]
  IC50: 73 nM
[3]
  Ki: 0.72 nM

## CC(C)Sc1ccc(OC(F)F)c(-c2nn(CC(=O)N3CCC(NCC4(C#N)CC4)CC3)cc2NC(=O)c2cnn3cccnc23)c1 [Example 115, N-[1-[2-[4-[(1-cyanocyclopropyl)methylamino]-1-piperidyl]-2-oxo-ethyl]-3-[2-(difluoromethoxy)-5-isopropylsulfanyl-phenyl]pyrazol-4-yl]pyrazolo[1,5-a]pyrimidine-3-carboxamide]
[1]
  Ki: 0.65 nM
[2]
  IC50: 34 nM
[3]
  Ki: 1.6 nM

## CSc1ccc(OC(F)F)c(-c2nn(CC(=O)N3CCC(N4CCn5ccnc5C4)CC3)cc2NC(=O)c2cnn3cccnc23)c1 [Example 73, N-[3-[2-(difluoromethoxy)-5-methylsulfanyl-phenyl]-1-[2-[4-(6,8-dihydro-5H-imidazo[1,2-a]pyrazin-7-yl)-1-piperidyl]-2-oxo-ethyl]pyrazol-4-yl]pyrazolo[1,5-a]pyrimidine-3-carboxamide]
[1]
  Ki: 0.23 nM
[2]
  IC50: 39 nM
[3]
  Ki: 0.25 nM
